In patent US7087588B2, “Nitric oxide donors capable of reducing toxicity from drugs” (Nicox S.A., priority 1996, dated 2006):
Marks after values point to notes of the source that are not given here.

What was measured:
Washed human platelets = experiment: Nitric oxide generation by chemiluminescence, platelets (method b); format: cell-based; conditions: incubation of 100 μmoles of NO donor, 5 minutes
Experimental: Washed human platelets, prepared analogously with what described by Radomski et al, (Br. J. Pharmacol. 92, 639–1987), were utilized. Aliquots of 0.4 ml were incubated with scalar concentrations of NO donors (1–100 μg/ml) for 5 minutes. The incubation medium (f.i. Tyrode) was then analysed to determine the capacity of generating NO, by determination of nitric oxide by chemiluminiscence and cGMP, with the modalities described in the previous paragraph, for the analyses carried out on the endothelial cells. As to the determination by chemiluminescence, also in this case, on the basis of a calibration curve, prepared with scalar concentrations of nitrite, it was possible to determine quantitatively the concentration of generated NO. For instance, after incubation of 100 μmoles of nicorandil, an amount equal to 35 μmoles of NO was generated.

[1] = test system: Cells of the human umbilical vein; experiment: Nitric oxide generation by chemiluminescence, endothelial cells (method a); format: cell-based; conditions: incubation of 100 μmoles of NO donor, 5 minutes
Experimental: In particular the test relates to the generation of nitric oxide from the NO donors of the present invention, among which, for instance, nitroglycerine, nicorandil, nitro-prussiate, etc., when they are put in the presence of endothelial cells (method a), or platelets (method b). Cells of the human umbilical vein, spread on the plate, with density of 10^3 cells/plate were incubated with scalar concentrations of NO donor (1–100 μg/ml) for 5 minutes. The incubation medium (physiologic solvent, for instance Tyrode) was then analyzed to determine the capacity to generate NO, by means of: • 1) the determination of nitric oxide by chemiluminescence; • 2) the cGMP determination (cyclic GMP No. 2715 of the above mentioned Merck). […] The nitrites/nitrates present in the medium in these conditions are converted into NO which is then determined after its reaction with ozone, with consequent generation of light. As it usually occurs in the devices measuring chemiluminescence, the produced luminescence is directly proportional to the NO levels generated and can be measured by the suitable photomultiplier unit of a chemiluminescence analyser. The photomultiplier converts the incident light into electric voltage, which is then quantitatively recorded. […]

rats = experiment: Tolerance to nitroglycerin after repeated subcutaneous administration in rats; format: in vivo, rat; conditions: nitroglycerin given with enalapril, repeated subcutaneous administration 1 mg/kg per day
[2] = Renal functionality and gastrointestinal tolerability in hypertensive rats after diclofenac, with or without DON-NO; format: in vivo, Sprague-Dawley male rats; conditions: spontaneously hypertensive rats, diclofenac 12 mg/kg i.p. daily, 5 days; nitroglycerin 3 mg/kg s.c.; vehicle = 100
guinea pigs = experiment: Capsaicin induced bronchoconstriction in enalapril-treated guinea pigs; format: in vivo, guinea pig; conditions: enalapril 10 mg/kg and/or NO-naproxen 10 mg/kg intraduodenally, capsaicin 1 μg/kg i.v. 45 minutes later, vehicle = 100
Experimental: Capsaicin-induced bronchoconstriction in guinea pigs is an animal model related to the ability of angiotensin-converting-enzyme inhibitors to provoke cough in patients (Subissi et al, J. Cardiovasc. Pharmacol. 20/1, 139–146, 1992).
Experimental conditions were as previously described by Del Soldato et al (J. Pharmacological Methods 5, 279, 1981). Female guinea pigs weighing 300–400 g were anesthetized through intraperitoneal injection of sodiun 5,5 diethylbarbiturate (200 mg/kg) and kept under artificial respiration at constant positive pressure. Jugular right vein was incannuled for the administration of the compounds. Animals received intraduodenally enalapril (10 mg/kg), vehicle (carboxymethyl cellulose 2% by weight) and/or NO-naproxen (10 mg/kg). Forty-five minutes later, it was injected intravenously 0.1 ml capsaicin (1 μg/kg). Before and after capsaicin injection, tidal air changes were measured by means of modified Konzett apparatus connected to a polygraph amplifier.
Results were calculated as ratio of the responses obtained before and after the administration of each treatment, expressed as % of the vehicle (control) response and shown in Table 7.

Compound: O=C(NCCO[N+](=O)[O-])c1cccnc1 [nicorandil, N-[2-(nitrooxy)ethyl]-3-pyridine-carboxamide]
- amount of NO generated (Washed human platelets): 35 µmol
- amount of NO generated [1]: about 10 μmoles

Compound: O=[N+]([O-])OCC(CO[N+](=O)[O-])O[N+](=O)[O-] [nitroglycerin, 1,2,3 propanetriol trinitrate]
- tolerance after repeated administration (rats): did not cause any tolerance

Compound: O=C(O)Cc1ccccc1Nc1c(Cl)cccc1Cl [DICLOFENAC, diclofenac]
- BLOOD CREATININE, percent variation with respect to the control values [2]: 287* PERCENT

Compound: CCOC(=O)[C@H](CCc1ccccc1)N[C@@H](C)C(=O)N1CCC[C@H]1C(=O)O [enalapril]
- BRONCHOCONSTRICTION (%), % of the vehicle (control) response (guinea pigs): 290%
